Assay [1] has as its system carotid artery thrombosis. As to the kind of experiment: Cynomolgus monkey electrolytic injury-induced carotid artery thrombosis model. It counts as in vivo. The following applies: oral, electrically-induced arterial thrombus model. The text has this: The efficacy of the PAR4 antagonists of the present invention in preventing thrombosis can also be measured in a variety of in vivo assays. Exemplary mammals that can provide models of thrombosis and hemostasis to test the effectiveness of the PAR4 antagonists of the present invention as antithrombotic agents include, but are not limited to, guinea pigs and primates. Relevant efficacy models include, but are not limited to, electrolytic injury-induced carotid artery thrombosis, FeCl3-induced carotid artery thrombosis and arteriovenous-shunt thrombosis. […]
On the day of the study, compounds or vehicles were administered orally at 1 to 2 hours before the experiment. […] Blood pressure and heart rate were monitored to maintain normal vital signs.
Carotid blood flow was measured with an appropriately sized TRANSONIC® flow probe and a TRANSONIC® perivascular flowmeter (TS420 Model, Transonic Systems Inc., Ithaca, N.Y.). It was continuously recorded over a 90-min period to monitor thrombosis-induced occlusion. Integrated carotid blood flow was measured by the area under the flow-time curve. It was expressed as percent of total control carotid blood flow, which would result if control blood flow had been maintained continuously for 90 min. […]

Assay [2] has as its system carotid artery thrombosis. As to the kind of experiment: cynomolgus monkey electrolytic injury-induced carotid artery thrombosis model. The format is in vivo.

As for `COc1cc(OCc2csc(-c3ccccc3)n2)c2cc(-c3cn4nc(OC)sc4n3)oc2c1` [Example 3, 2-Methoxy-6-(6-methoxy-4-((2-phenylthiazol-4-yl)methoxy)benzofuran-2-yl)imidazo[2,1-b][1,3,4]thiadiazole], the “antithrombotic efficacy (dose response, FIG. 1C)” value in assay [1] is recorded as “demonstrating the in vivo antithrombotic efficacy”. Moreover, in assay [2], the “antithrombotic efficacy (FIG. 1C)” value is given as “antithrombotic efficacy”.

The values are drawn from patent US9688695B2, “Imidazothiadiazole and imidazopyrazine derivatives as protease activated receptor 4 (PAR4) inhibitors for treating platelet aggregation” (BRISTOL-MYERS SQUIBB COMPANY, priority 2012, dated 2017).
